We go through one compound from patent US20240091242A1, “LIPIDS THAT REDUCE LUNG DAMAGE, IMPROVE PULMONARY FUNCTION AND DECREASE PRO-INFLAMMATORY CYTOKINES” (Signpath Pharma, Inc., priority 2021, published 2024).

Data set [1] deals with murine LPS ARDS model. The data set is described as follows: BALF protein content and cell counts, murine LPS ARDS model. Format: in vivo, mouse. As for the experimental part:
(§1) In the ARDS group, mice received Escherichia coli O111:B4 lipopolysaccharide (50 μg in 0.05 mL saline, i.t.), while, in the control group, the animals received an instillation of saline (0.05 mL, i.t.). For intratracheal instillation, mice were slightly anesthetized with isoflurane.
(§2) The lipid SPPCT-800 was dissolved in water (low dose—2 mg/ml; high dose—20 mg/ml). For the 24-hour study, two treatment approaches were used. Mice received a single dose of SPPCT-800 (200 mg/kg, per gavage) as prevention (30 minutes before the LPS instillation), or as a single dose of either 20 mg/kg or 200 mg/kg as therapy (3-hour after the LPS instillation). For the 72-hour study, mice received a total of 8 treatments of SPPCT-800 (200 mg/kg) starting at 3-hour after the LPS instillation. Disease progression in mice was assessed by the evaluation of pulmonary functions, blood oxygen saturation, and body weight change. On the terminal day of each study (24 hours or 72 hours), measurement of cytokine levels in the plasma and BALF, and histopathology evaluations were done.
Differential Cell Counts in BALF. The left lung was clamped while 0.9 mL of cold PBS 1×, Protease Inhibitor 1× (SigmaFast®) solution (3×300 μL) was injected so bronchoalveolar lavage fluid (BALF) from the right lobe of the lungs could be collected. The protein assay was performed according to the manufacturer's instruction BCA Protein Assay (Pierce™-#23227). Briefly, a dilution factor of 5 was used (1 part of BALF: 4 part of PBS 1×). 10 μL, of the diluted sample was added into the microplate wells. 200 μL of the working reagent was added into each well. The plate was covered, incubated at 37° C. for 30 minutes. After a cool-down period, the absorbance at 562 nm was rapidly measured using a monochromatic spectrophotometer (SpectraMAX ® plus—Molecular Devices). The total BALF protein content was reported by multiplying the protein concentration by the dilution factor, and then multiplying by the total of BALF volume collected.
(§3) Statistical Analysis. Results are expressed as means±SEM. Comparisons were made on normally distributed data using ANOVA, followed by a Fisher post hoc test to assess the difference between LPS+vehicle group with GraphPad Prism Software version 8.0 (San Diego, CA, USA). Differences were considered statistically significant when P values were less than 0.05. (* Shown difference versus Sham animals and # shown difference versus LPS+Vehicle group. * Means P<0.05, ** P<0.01, *** P<0.001 while # means P<0.05, ##P<0.01 and ###P<0.001).

Data set [2] has as its system murine LPS ARDS model. The data set is described as follows: Arterial blood oxygen saturation (SpO2), murine LPS ARDS model. Format: in vivo, mouse. The note with it: 72-hour study; compared to untreated LPS group; did not reach statistical significance. As for the experimental part:
as §1
as §2, with “On the terminal day of each study (24 hours or 72 hours), measurement of cytokine levels in the plasma and BALF, and histopathology evaluations were done.” left out
At 0 hour (baseline), 24-hour post-LPS instillation, and 48 and 72-hour post LPS instillation, arterial blood oxygen saturation (SpO2) was recorded on conscious mice. SpO2 was read off of a pulse oximeter (STARR Life Sciences MouseOx Plus system, Oakmont, PA) with a mouse collar probe installed at the carotid level. The saturation values were measured in percentages (%).
Statistical Analysis. Results are expressed as means±SEM. […]

Data set [3] can be described thus: Toxicity (non-toxic dose). The note with it: in vivo.
Data set [4] has as its system murine LPS ARDS model. Nature of the data set: Body weight and lung weight, murine LPS ARDS model. The note with it: for body weight loss: 72-hour study. Format: in vivo, mouse. As for the experimental part:
C57B16/N mice were obtained from Charles River Laboratories (Montreal, Quebec). Male mice, 20-25 g of body weight, were used throughout the studies. Animals were housed in specific pathogen[…]free conditions, and all experiments were approved by Institutional Animal Care and Use Committee (IPST_SL20200402-1). Animal studies are reported in compliance with […] guidelines.
as §1, §2, §3

In data set [5] the test system is murine LPS ARDS model. Nature of the data set: Overall efficacy in the murine LPS ARDS model. Format: in vivo, mouse. As for the experimental part: To investigate the role of the lipids of the present invention, such as SPPCT-800, as a treatment for ARDS, the inventors used a murine LPS model to measure histologic changes, lung and body weights, oxygen blood saturations and other pulmonary function parameters, BALF protein and cell counts, and pro-inflammatory cytokine levels in the plasma and BALF.
as §1
as §2, with “On the terminal day of each study (24 hours or 72 hours), measurement of cytokine levels in the plasma and BALF, and histopathology evaluations were done.” left out

Each structure is given as a SMILES string. “Also recorded” adds a separate entry of the source.

In the case of `CCCCCCCCCCCCCC(=O)OCC(COP(=O)([O-])OCC(COC(=O)CCC)OC(=O)CCC)OC(=O)CCCCCCCCCCCCC.CCCCCCCCCCCCCC(=O)OCC(COP(=O)([O-])OCC(COC(=O)CCC)OC(=O)CCC)OC(=O)CCCCCCCCCCCCC.[Mg+2]` (stereo not drawn) [SPPCT-800], the BALF protein content result in data set [1] (24 hours after LPS, single dose given as a preventive, P<0.05) is listed as “significant reduction”. The BALF protein levels entry in data set [1] (at 72 hours, multidose treatment) is “major reductions”. Further, in data set [1] (at 72 hours, multidose treatment, P=0.1493, not statistically significant), the BALF neutrophil counts entry is given as “reductions”. The “BALF total cell count” value in data set [1] (at 72 hours, multidose treatment, P=0.1714, not statistically significant) is reported as “reductions”. Besides, the SpO2 levels result in data set [2] is given as “maintained”. Besides, the non-toxic dose entry in data set [3] is reported as “up to 800 mg/kg per day”. In data set [4] (48 hours and 72 hours after LPS treatment), the “body weight loss versus LPS (in words)” value was “significantly reduced”. In data set [4] (72 hours), the “wet lung weight/dry lung ratio” value is given as “decreased”. Further, the “lung index (lung weight/body weight×100)” value in data set [4] (72 hours, P<0.05) is recorded as “reduced; also recorded: significantly decreased”. In data set [4] (animals sacrificed at 72 hours, P=0.1100), the lung weight result is listed as “tended to reduce”. For the same compound, the body weight loss was 14% in data set [4] (at 24 hours after LPS); 14% in data set [4] (at 48 hours after LPS, P<0.05 vs untreated LPS group); 8% in data set [4] (at 72 hours after LPS, P<0.05 vs untreated LPS group). Also, the “efficacy against ARDS” value in data set [5] (all three studies, best results in the 72-hour study) is “effective”. Besides, the “severe damage to the lung” value in data set [5] (single dose of 200 mg/kg, given 30 minutes before LPS challenge) was “significantly reduces”.
